In paper PMC7217877, “N-AS-triggered SPMs are direct regulators of microglia in a model of Alzheimer’s disease” (Nature Communications, 2020):
Where “and” joins values, the source holds several entries; their conditions need not be identical. Identical values can stand only once.

Key:
[1] = molecular target: T1, COX2 WT (Homo sapiens, UniProt P35354); assay: in vitro [14C] acetylation assay of purified COX2; format: biochemical; details: purified COX2 + 14C-labelled acetyl donor, 2 h, 37 °C, scintillation counter, replicates, in cpm (unit assumed)
T1 construct: His (N); made in house
T1 sequence (P35354 18-604): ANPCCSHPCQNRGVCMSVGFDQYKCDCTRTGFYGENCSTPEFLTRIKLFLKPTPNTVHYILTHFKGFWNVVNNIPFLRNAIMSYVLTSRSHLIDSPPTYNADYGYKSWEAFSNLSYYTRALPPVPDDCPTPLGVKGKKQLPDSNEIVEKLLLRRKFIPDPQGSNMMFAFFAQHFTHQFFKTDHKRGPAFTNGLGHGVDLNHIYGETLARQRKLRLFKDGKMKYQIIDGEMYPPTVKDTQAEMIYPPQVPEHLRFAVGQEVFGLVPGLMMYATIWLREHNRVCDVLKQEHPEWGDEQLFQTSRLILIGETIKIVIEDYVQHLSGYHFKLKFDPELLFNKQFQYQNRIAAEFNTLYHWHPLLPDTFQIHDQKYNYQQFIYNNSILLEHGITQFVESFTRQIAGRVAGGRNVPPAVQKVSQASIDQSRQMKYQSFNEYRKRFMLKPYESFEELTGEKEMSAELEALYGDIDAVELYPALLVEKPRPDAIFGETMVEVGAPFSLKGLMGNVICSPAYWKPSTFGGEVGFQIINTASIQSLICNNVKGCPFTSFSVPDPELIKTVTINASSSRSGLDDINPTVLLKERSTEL

[2] = tested on: microglia; assay: western blotting for ac-S565 and total COX2 in primary cells; format: cell-based, C57BL/6 mice; parameters: ac-S565, western blotting (Fig 3h): scale not given here; details: replicates
Procedure: To confirm the generation and roles of N-AS in neurons, cells from E18 C57BL/6 mice were prepared as previously described. Cortices were dissected and then dissociated followed by incubation in papain (Worthington) at 37 °C for 15 min. Neurons were plated on poly-L-lysine-coated coverslips with neuronal culture medium, serum-free Neurobasal medium (Gibco) containing 2% B27 supplements (Gibco), 1 mM Glutamax supplement (Gibco), and 100 U ml^−1 streptomycin/ 100 U ml^−1 penicillin (Gibco) at 37 °C in a humidified atmosphere of 5% CO2. Aβ 1–42 (10 μM, 24 h, Invitrogen, 03112) was exposed to neurons and the cells were analyzed for the generation and roles of N-AS. Primary astrocyte cultures were prepared from C57BL/6 mice as described previously. In brief, after removal of the meninges, postnatal day 7 (P7) mouse brain tissues were minced and incubated in a rocking water bath at 37 °C for 30 min in the presence of 0.25% trypsin-EDTA (Sigma-Aldrich). Enzyme-digested dissociated cells were triturated with astrocyte-specific medium (DMEM/F12 containing 10% FBS and 1% penicillin-streptomycin) and centrifuged at 155×g for 8 min. The pellet was resuspended in astrocyte-specific medium and passed through a 40-μm cell strainer. The filtrate was allowed pre-adherence for 30 min to remove any contamination from fibroblasts before being seeded in dishes and the addition of astrocyte-specific medium. To split the cells, Ara-C was added to the dishes and they were then placed in a heated shaker for 6–7 h. The medium was removed from the dishes, and trypsin-EDTA was added to the dish and incubated at 37 °C for 5–10 min. After centrifugation at 155×g for 8 min, the supernatant was removed, and the astrocytes were maintained in culture by feeding […] with astrocyte-specific medium. Primary microglia cultures were prepared from C57BL/6 mice as described previously. In brief, the cortices of 2-months-old mice were minced in Hibernate A (Gibco)/B27 supplements (Gibco) medium and dissociated using papain (Worthington) solution. After tissue trituration, cells were separated by Optiprep (Sigma-Aldrich) density gradient centrifugation. Microglia were plated with microglia-specific medium (DMEM/F12 containing 10% FBS and 1% penicillin-streptomycin). The immortalized human microglia (Applied Biologics Materials, T0251) were cultured in PriGrow III (Applied Biologics Materials, TM003) (supplemented with 10% FBS and 1% penicillin-streptomycin) at 37 °C in a humidified atmosphere of 5% CO2. In order to assess the clinical importance of N-AS in AD microglia, Aβ 1–42 (50 μM, 24 h, Invitrogen, 03112) was exposed to human microglia before treated with zileuton (50 μM, 24 h, Sigma-Aldrich, Z4277). The human microglia treated with Aβ 1–42 and/or zileuton was incubated with N-AS (2.5 μM, 2 h, Sigma-Aldrich, 01912), and were analyzed for the generation and roles of N-AS.
Samples were lysed in RIPA buffer (Cell signaling Technologies), then subjected to SDS-PAGE and transferred to a nitrocellulose membrane. Membranes were blocked with 5% milk, incubated with primary antibody and then incubated with the appropriate horseradish peroxidase-conjugated secondary antibody. […] We performed densitometric quantification using the ImageJ software (National Institutes of Health). Images have been cropped for presentation.

[3] = tested on: immortalized human microglia; assay: LM-SPM profile of human microglia (LC-MS/MS, Supplementary Table 3, Fig 6d); format: cell-based; parameters: 15R-LxA4 / RvE1 / RvD1: unit not given here; details: for 15R-LxA4 / RvD1 / RvE1: human microglia, sFig 6d; for 11-HEPE in human microglia / 11-HETE in human microglia / 13-HDHA in human microglia / 15-HEPE in human microglia / 15-HETE in human microglia / 15R-LXA4 in human microglia / 17-HDHA in human microglia / 18-HEPE in human microglia / PGE3/PGD3 in human microglia / PGH2/PGE2 in human microglia / RvD1 in human microglia / RvE1 in human microglia: mean±s.e.m.

CC(=O)SCCNC(=O)CCNC(=O)[C@H](O)C(C)(C)COP(=O)(O)OP(=O)(O)OC[C@H]1O[C@@H](n2cnc3c(N)ncnc32)[C@H](O)[C@@H]1OP(=O)(O)O [Acetyl-CoA, acetyl-CoA]
C14 radioactivity of COX2, acetylation assay (Fig 1b) ([1]; listed as C14 Acetyl CoA): 4565 and 4620 and 4766 and 3817 | ac-S565, western blotting (Fig 3h) ([2]; Ab 10mM + supplement): 1.293 and 1.204 and 1.322 and 1.2834 | 15R-LxA4 ([3]; Aβ 50 µM +): 29.8592 and 28.6097 and 30.6248 and 29.0936 and 30.1012 | RvD1 ([3]; Aβ 50 µM +): 2.566 and 2.828 and 2.839 and 2.697 and 2.833 and 2.768 | RvE1 ([3]; Aβ 50 µM +): 14.9946 and 13.574 and 15.0361 and 14.2843 and 14.305

CC(=O)Oc1ccccc1C(=O)O [Aspirin, acetylsalicylic acid, reference compound]
C14 radioactivity of COX2, acetylation assay (Fig 1b) ([1]; listed as C14 Aspirin): 16445 and 14504 and 14566 and 16561 and 14595 and 14332 and 14859

CCCCCCCCCCCCC/C=C/[C@@H](O)[C@H](CO)NC(C)=O [N-AS, N-((2S,3R,E)-1,3-Dihydroxyoctadec-4-en-2-yl)acetamide]
C14 radioactivity of COX2, acetylation assay (Fig 1b) ([1]; listed as C14 N-AS): 347557 and 414691 and 285538 and 348458 and 418276 and 416508 and 283195 | ac-S565, western blotting (Fig 3h) ([2]; Ab 10mM + supplement): 1.339 and 1.447 and 1.994 and 1.362 | 11-HEPE in human microglia ([3]; Aβ 50 µM + treatment): 371.7±4.0 ng/ml*106cell | 11-HETE in human microglia ([3]; Aβ 50 µM + treatment): 148.4±1.9 ng/ml*106cell | 13-HDHA in human microglia ([3]; Aβ 50 µM + treatment): 133.0±1.8 ng/ml*106cell | 15-HEPE in human microglia ([3]; Aβ 50 µM + treatment): 237.9±3.7 ng/ml*106cell | 15-HETE in human microglia ([3]; Aβ 50 µM + treatment): 625.4±1.7 ng/ml*106cell | 15R-LXA4 in human microglia ([3]; Aβ 50 µM + treatment): 19.8±0.2 ng/ml*106cell | 17-HDHA in human microglia ([3]; Aβ 50 µM + treatment): 707.6±8.2 ng/ml*106cell | 18-HEPE in human microglia ([3]; Aβ 50 µM + treatment): 1763.6±30.4 ng/ml*106cell | PGE3/PGD3 in human microglia ([3]; Aβ 50 µM + treatment): 132.9±2.0 ng/ml*106cell | PGH2/PGE2 in human microglia ([3]; Aβ 50 µM + treatment): 95.7±0.9 ng/ml*106cell | RvD1 in human microglia ([3]; Aβ 50 µM + treatment): 2.13±0.02 ng/ml*106cell | RvE1 in human microglia ([3]; Aβ 50 µM + treatment): 8.6±0.3 ng/ml*106cell | SPM production, in words ([3]; Aβ-treated human microglia + N-AS): improved SPM production | 11-HEPE in human microglia ([3]; Control (no Aβ) + treatment): 451.8±4.6 ng/ml*106cell | 11-HETE in human microglia ([3]; Control (no Aβ) + treatment): 161.8±0.9 ng/ml*106cell | 13-HDHA in human microglia ([3]; Control (no Aβ) + treatment): 133.9±2.2 ng/ml*106cell | 15-HEPE in human microglia ([3]; Control (no Aβ) + treatment): 284.1±4.0 ng/ml*106cell | 15-HETE in human microglia ([3]; Control (no Aβ) + treatment): 625.5±6.8 ng/ml*106cell | 15R-LXA4 in human microglia ([3]; Control (no Aβ) + treatment): 28.7±0.3 ng/ml*106cell | 17-HDHA in human microglia ([3]; Control (no Aβ) + treatment): 633.8±9.2 ng/ml*106cell | 18-HEPE in human microglia ([3]; Control (no Aβ) + treatment): 1636.9±19.7 ng/ml*106cell | PGE3/PGD3 in human microglia ([3]; Control (no Aβ) + treatment): 113.1±1.6 ng/ml*106cell | PGH2/PGE2 in human microglia ([3]; Control (no Aβ) + treatment): 105.8±1.1 ng/ml*106cell | RvD1 in human microglia ([3]; Control (no Aβ) + treatment): 2.36±0.02 ng/ml*106cell | RvE1 in human microglia ([3]; Control (no Aβ) + treatment): 18.5±0.4 ng/ml*106cell | 15R-LxA4 ([3]; Aβ 50 µM +): 20.003 and 19.3859 and 19.5943 and 20.5159 and 19.4901 and 20.0551 | RvD1 ([3]; Aβ 50 µM +): 2.139 and 2.0589 and 2.21 and 2.099 and 2.134 and 2.154 | RvE1 ([3]; Aβ 50 µM +): 9.835 and 7.339 and 9.039 and 8.587 and 8.189 and 8.813 | 15R-LxA4 ([3]; Aβ 50 µM -): 29.0008 and 28.9046 and 27.6099 and 29.7445 and 28.2572 and 28.6772 | RvD1 ([3]; Aβ 50 µM -): 2.289 and 2.353 and 2.443 and 2.321 and 2.398 and 2.382 | RvE1 ([3]; Aβ 50 µM -): 19.7237 and 16.8195 and 19.2333 and 18.2716 and 18.0264 and 18.7524

CCCCCCCCCCCCC/C=C/[C@@H](O)[C@@H](N)CO [Sph, sphingosine]
ac-S565, western blotting (Fig 3h) ([2]; Ab 10mM + supplement): 0.2446 and 0.241 and 0.1599 and 0.2328

Ab: Aβ 1–42 (Invitrogen, 03112) used to induce an AD environment in cells
ac-S565, western blotting (Fig 3h) ([2]; Ab 10mM, no supplement): 0.2316 and 0.2169 and 0.2234 and 0.1511 | ac-S565 / total COX2, western blotting (Fig 3b) ([2]; Ab 10mM): 0.3907 and 0.4255 and 0.3575 and 0.3077 and 0.4081 and 0.3915 | 11-HEPE in human microglia ([3]; Aβ 50 µM alone): 490.2±2.4 ng/ml*106cell | 11-HETE in human microglia ([3]; Aβ 50 µM alone): 174.9±2.0 ng/ml*106cell | 13-HDHA in human microglia ([3]; Aβ 50 µM alone): 128.2±1.8 ng/ml*106cell | 15-HEPE in human microglia ([3]; Aβ 50 µM alone): 272.1±7.3 ng/ml*106cell | 15-HETE in human microglia ([3]; Aβ 50 µM alone): 564.3±4.4 ng/ml*106cell | 15R-LXA4 in human microglia ([3]; Aβ 50 µM alone): 0.03±0.0 ng/ml*106cell | 17-HDHA in human microglia ([3]; Aβ 50 µM alone): 561.8±2.7 ng/ml*106cell | 18-HEPE in human microglia ([3]; Aβ 50 µM alone): 1515.3±10.4 ng/ml*106cell | PGE3/PGD3 in human microglia ([3]; Aβ 50 µM alone): 163.9±2.5 ng/ml*106cell | PGH2/PGE2 in human microglia ([3]; Aβ 50 µM alone): 78.7±0.8 ng/ml*106cell | RvD1 in human microglia ([3]; Aβ 50 µM alone): 0.01±0.0 ng/ml*106cell | RvE1 in human microglia ([3]; Aβ 50 µM alone): 0.01±0.0 ng/ml*106cell

B1: Sphk1: purified sphingosine kinase1 enzyme (Cayman, 10348) supplemented to cell lysates (protein, UniProt Q9NYA1 1-384, looked up)
Sphingosine kinase 1: MDPAGGPRGVLPRPCRVLVLLNPRGGKGKALQLFRSHVQPLLAEAEISFTLMLTERRNHARELVRSEELGRWDALVVMSGDGLMHEVVNGLMERPDWETAIQKPLCSLPAGSGNALAASLNHYAGYEQVTNEDLLTNCTLLLCRRLLSPMNLLSLHTASGLRLFSVLSLAWGFIADVDLESEKYRRLGEMRFTLGTFLRLAALRTYRGRLAYLPVGRVGSKTPASPVVVQQGPVDAHLVPLEEPVPSHWTVVPDEDFVLVLALLHSHLGSEMFAAPMGRCAAGVMHLFYVRAGVSRAMLLRLFLAMEKGRHMEYECPYLVYVPVVAFRLEPKDGKGVFAVDGELMVSEAVQGQVHPNYFWMVSGCVEPPPSWKPQQMPPPEEPL
ac-S565, western blotting (Fig 3h) ([2]; Ab 10mM + supplement): 0.2731 and 0.2264 and 0.2811 and 0.241
